Assay results as given in PubChem BioAssay AID1918932 (Molecular Pharmacology Branch, DTP, NCI, 2023).
Where “and” joins values, the source holds several entries; their conditions need not be identical. Equal entries are not always repeated.

Tested on: 171881-019-R-J1-PDC complex spheroid viability
Test: Anticancer human tumor 171881-019-R-J1-PDC patient-derived invasive breast carcinoma cell line growth inhibition
Conditions: for viability, T/C: stronger effect = lower value
In short: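 Drug combinations with the LSD1 inhibitor iadademstat tested on tumor cells co-cultured as spheroids with endothelial cells and mesenchymal stem cells. Concentrations descended in half-log increments from clinical Cmax or 10 microM.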

[1] = curve of first compound, second compound 0.1 µM
[2] = curve of first compound, second compound 0.316 µM
[3] = curve of first compound, second compound 1 µM
[4] = curve of first compound, second compound 3.16 µM
[5] = curve of first compound, second compound 10 µM
[6] = second compound 0.1 µM, first compound 0.000949 µM
[7] = second compound 0.1 µM, first compound 0.003 µM
[8] = second compound 0.1 µM, first compound 0.00949 µM
[9] = second compound 0.1 µM, first compound 0.03 µM
[10] = second compound 0.1 µM, first compound 0.0949 µM
[11] = second compound 0.1 µM, first compound 0.3 µM
[12] = second compound 0.316 µM, first compound 0.000949 µM
[13] = second compound 0.316 µM, first compound 0.003 µM
[14] = second compound 0.316 µM, first compound 0.00949 µM
[15] = second compound 0.316 µM, first compound 0.03 µM
[16] = second compound 0.316 µM, first compound 0.0949 µM
[17] = second compound 0.316 µM, first compound 0.3 µM
[18] = second compound 1 µM, first compound 0.000949 µM
[19] = second compound 1 µM, first compound 0.003 µM
[20] = second compound 1 µM, first compound 0.00949 µM
[21] = second compound 1 µM, first compound 0.03 µM
[22] = second compound 1 µM, first compound 0.0949 µM
[23] = second compound 1 µM, first compound 0.3 µM
[24] = second compound 3.16 µM, first compound 0.000949 µM
[25] = second compound 3.16 µM, first compound 0.003 µM
[26] = second compound 3.16 µM, first compound 0.00949 µM
[27] = second compound 3.16 µM, first compound 0.03 µM
[28] = second compound 3.16 µM, first compound 0.0949 µM
[29] = second compound 3.16 µM, first compound 0.3 µM
[30] = second compound 10 µM, first compound 0.000949 µM
[31] = second compound 10 µM, first compound 0.003 µM
[32] = second compound 10 µM, first compound 0.00949 µM
[33] = second compound 10 µM, first compound 0.03 µM
[34] = second compound 10 µM, first compound 0.0949 µM
[35] = second compound 10 µM, first compound 0.3 µM
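Also: spheroids exposed to agents for 7 days after 3 days growth.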

**Q.** Which results are given for Nc1ncn(C2CC(O)C(CO)O2)c(=O)n1 (centres undefined)?
**A.** viability, T/C (compound 0.00316 µM): 109% and 97.4%; viability, T/C (compound 0.01 µM): 122% and 97.5%; viability, T/C (compound 0.0316 µM): 128% and 95.1%; viability, T/C (compound 0.1 µM): 130% and 93.4%; viability, T/C (compound 0.316 µM): 120% and 91.2%; viability, T/C (compound 1 µM): 105% and 81.2%; IC50 (curve of compound): > 1 µM

**Q.** How did the IC50 [1] turn out when CCc1c2c(nc3ccc(O)cc13)-c1cc3c(c(=O)n1C2)COC(=O)[C@]3(O)CC + NC1CCC(NC2CC2c2ccccc2)CC1 was run?
**A.** Its IC50 is 0.00345 µM.

**Q.** What about the IC50 [2] of the same molecule?
**A.** The IC50 was 0.00388 µM.

**Q.** And the IC50 [3]?
**A.** Its IC50 is 0.00487 µM.

**Q.** And the IC50 [4]?
**A.** Its IC50 is 0.00552 µM.

**Q.** What about the IC50 [5] of the same molecule?
**A.** Its IC50 is 0.00575 µM.

**Q.** And the viability, T/C [6]?
**A.** The viability, T/C was 64.2%.

**Q.** What about the viability, T/C [7] of the same molecule?
**A.** The viability, T/C was 53.5%.

**Q.** What about the viability, T/C [8] of the same molecule?
**A.** The viability, T/C was 32.2%.

**Q.** And the viability, T/C [9]?
**A.** Its viability, T/C is 20.5%.

**Q.** And the viability, T/C [10]?
**A.** Its viability, T/C is 8.51%.

**Q.** And the viability, T/C [11]?
**A.** The viability, T/C was 6.45%.

**Q.** And the viability, T/C [12]?
**A.** Its viability, T/C is 67.5%.

**Q.** What about the viability, T/C [13] of the same molecule?
**A.** Its viability, T/C is 55.5%.

**Q.** What about the viability, T/C [14] of the same molecule?
**A.** Its viability, T/C is 33.2%.

**Q.** And the viability, T/C [15]?
**A.** Its viability, T/C is 20.6%.

**Q.** And the viability, T/C [16]?
**A.** Its viability, T/C is 9.31%.

**Q.** What about the viability, T/C [17] of the same molecule?
**A.** Its viability, T/C is 6.46%.

**Q.** And the viability, T/C [18]?
**A.** Its viability, T/C is 69.5%.

**Q.** What about the viability, T/C [19] of the same molecule?
**A.** Its viability, T/C is 61.4%.

**Q.** And the viability, T/C [20]?
**A.** The viability, T/C was 34.8%.

**Q.** And the viability, T/C [21]?
**A.** Its viability, T/C is 22.4%.

**Q.** What about the viability, T/C [22] of the same molecule?
**A.** Its viability, T/C is 10.3%.

**Q.** What about the viability, T/C [23] of the same molecule?
**A.** The viability, T/C was 7.43%.

**Q.** What about the viability, T/C [24] of the same molecule?
**A.** Its viability, T/C is 75%.

**Q.** What about the viability, T/C [25] of the same molecule?
**A.** Its viability, T/C is 65.3%.

**Q.** What about the viability, T/C [26] of the same molecule?
**A.** Its viability, T/C is 35.5%.

**Q.** And the viability, T/C [27]?
**A.** Its viability, T/C is 21.9%.

**Q.** And the viability, T/C [28]?
**A.** Its viability, T/C is 10.3%.

**Q.** And the viability, T/C [29]?
**A.** The viability, T/C was 7.23%.

**Q.** What about the viability, T/C [30] of the same molecule?
**A.** Its viability, T/C is 86%.

**Q.** What about the viability, T/C [31] of the same molecule?
**A.** The viability, T/C was 66.8%.

**Q.** What about the viability, T/C [32] of the same molecule?
**A.** Its viability, T/C is 35.6%.

**Q.** What about the viability, T/C [33] of the same molecule?
**A.** Its viability, T/C is 21.8%.

**Q.** And the viability, T/C [34]?
**A.** Its viability, T/C is 9.69%.

**Q.** And the viability, T/C [35]?
**A.** The viability, T/C was 6.81%.

**Q.** What does the source list for Nc1ncn(C2CC(O)C(CO)S2)c(=O)n1 (centres undefined) + NC1CC1c1ccc(-c2cccc(O)c2)cc1?
**A.** IC50 [1]: 0.0939 µM; IC50 [2]: 0.119 µM; IC50 [3]: 0.102 µM; IC50 [4]: 0.0993 µM; IC50 [5]: 0.0802 µM; viability, T/C [6]: 101%; viability, T/C [7]: 106%; viability, T/C [8]: 102%; viability, T/C [9]: 75.3%; viability, T/C [10]: 52.3%; viability, T/C [11]: 34.4%; viability, T/C [12]: 111%; viability, T/C [13]: 106%; viability, T/C [14]: 101%; viability, T/C [15]: 75.8%; viability, T/C [16]: 56.2%; viability, T/C [17]: 32.1%; viability, T/C [18]: 108%; viability, T/C [19]: 95.7%; viability, T/C [20]: 98.1%; viability, T/C [21]: 76.8%; viability, T/C [22]: 51.4%; viability, T/C [23]: 30.3%; viability, T/C [24]: 95.1%; viability, T/C [25]: 90.8%; viability, T/C [26]: 88.7%; viability, T/C [27]: 69.2%; viability, T/C [28]: 52.1%; viability, T/C [29]: 30.1%; viability, T/C [30]: 75.8%; viability, T/C [31]: 71.8%; viability, T/C [32]: 81.3%; viability, T/C [33]: 61.7%; viability, T/C [34]: 48.9%; viability, T/C [35]: 31%

**Q.** Which viability, T/C (compound 0.0316 µM) does the source give for O=C(c1cc(Cc2n[nH]c(=O)c3ccccc23)ccc1F)N1CCN(C(=O)C2CC2)CC1 here?
**A.** Its viability, T/C is 90.8% and 96.5%.

**Q.** And the viability, T/C (compound 0.1 µM)?
**A.** Its viability, T/C is 94.5% and 103%.

**Q.** And the viability, T/C (compound 0.316 µM)?
**A.** Its viability, T/C is 83.5% and 95.9%.

**Q.** And the viability, T/C (compound 1 µM)?
**A.** The viability, T/C was 91.6% and 83%.

**Q.** What about the viability, T/C (compound 3.16 µM) of the same molecule?
**A.** Its viability, T/C is 82.8% and 50.5%.

**Q.** And the viability, T/C (compound 10 µM)?
**A.** The viability, T/C was 101% and 21.5%.

**Q.** What about the IC50 (curve of compound) of the same molecule?
**A.** The IC50 was > 10 µM and 3.2 µM.
